Reference: the NIST ThermoML archive (doi:10.1021/acs.jced.8b00537)

Assay: xn = mol fraction of the nth substance listed
Details: 100 kPa, Liquid; for viscosity: Capillary tube (Ostwald / Ubbelohde) method; for speed of sound: Frequency=3 MHz, Single path-length method; for mass density: Vibrating tube method

CC[S+](CC)CC.O=S(=O)([N-]S(=O)(=O)C(F)(F)F)C(F)(F)F [triethylsulfonium bis((trifluoromethyl)sulfonyl)imide] + CCCO
Details | mass density [kg/m3] | speed of sound [m/s] | viscosity [mPa·s]
293.15 K, x1 = 0.04926 | 910 | 1205.5 | 2.874
293.15 K, x1 = 0.1003 | 996 | 1194.3 | 4.059
293.15 K, x1 = 0.1993 | 1120 | 1195 | 5.998
293.15 K, x1 = 0.3008 | 1209 | 1203.1 | 7.862
293.15 K, x1 = 0.3991 | 1273 | 1212.3 | 10.68
293.15 K, x1 = 0.5023 | 1324 | 1222.2 | 12.28
293.15 K, x1 = 0.5987 | 1363 | 1228.5 | 15.93
293.15 K, x1 = 0.6987 | 1395 | 1235.2 | 19.92
293.15 K, x1 = 0.7947 | 1421 | 1240.6 | 24.95
293.15 K, x1 = 0.903 | 1446 | 1245.8 | 31.64
293.15 K, x1 = 1 | 1465 | 1252.9 | 39.64
298.15 K, x1 = 0.04926 | 906 | 1190.3 | 2.515
298.15 K, x1 = 0.1003 | 992 | 1179.9 | 3.438
298.15 K, x1 = 0.1993 | 1115 | 1181.8 | 5.082
298.15 K, x1 = 0.3008 | 1204 | 1190.5 | 6.704
298.15 K, x1 = 0.3991 | 1268 | 1200.2 | 9.087
298.15 K, x1 = 0.5023 | 1319 | 1210.3 | 10.45
298.15 K, x1 = 0.5987 | 1358 | 1217 | 13.49
298.15 K, x1 = 0.6987 | 1390 | 1223.8 | 16.79
298.15 K, x1 = 0.7947 | 1416 | 1229.4 | 20.88
298.15 K, x1 = 0.903 | 1441 | 1234.8 | 26.25
298.15 K, x1 = 1 | 1460 | 1242.5 | 32.43
303.15 K, x1 = 0.04926 | 901 | 1174.8 | 2.216
303.15 K, x1 = 0.1003 | 987 | 1165.6 | 2.978
303.15 K, x1 = 0.1993 | 1111 | 1168.7 | 4.379
303.15 K, x1 = 0.3008 | 1199 | 1178.1 | 5.78
303.15 K, x1 = 0.3991 | 1263 | 1188.2 | 7.814
303.15 K, x1 = 0.5023 | 1314 | 1198.7 | 8.985
303.15 K, x1 = 0.5987 | 1353 | 1205.5 | 11.56
303.15 K, x1 = 0.6987 | 1386 | 1212.6 | 14.33
303.15 K, x1 = 0.7947 | 1411 | 1218.3 | 17.71
303.15 K, x1 = 0.903 | 1436 | 1223.9 | 22.1
303.15 K, x1 = 1 | 1455 | 1232.4 | 26.92
308.15 K, x1 = 0.04926 | 897 | 1159.5 | 1.962
308.15 K, x1 = 0.1003 | 983 | 1151.3 | 2.609
308.15 K, x1 = 0.1993 | 1106 | 1155.7 | 3.816
308.15 K, x1 = 0.3008 | 1194 | 1165.8 | 5.034
308.15 K, x1 = 0.3991 | 1258 | 1176.3 | 6.787
308.15 K, x1 = 0.5023 | 1310 | 1187.1 | 7.806
308.15 K, x1 = 0.5987 | 1348 | 1194.2 | 10.01
308.15 K, x1 = 0.6987 | 1381 | 1201.5 | 12.35
308.15 K, x1 = 0.7947 | 1407 | 1207.4 | 15.19
308.15 K, x1 = 0.903 | 1431 | 1213.1 | 18.81
308.15 K, x1 = 1 | 1450 | 1222.4 | 22.64
313.15 K, x1 = 0.04926 | 893 | 1144.2 | 1.747
313.15 K, x1 = 0.1003 | 978 | 1137.2 | 2.304
313.15 K, x1 = 0.1993 | 1101 | 1142.8 | 3.354
313.15 K, x1 = 0.3008 | 1190 | 1153.5 | 4.421
313.15 K, x1 = 0.3991 | 1253 | 1164.5 | 5.945
313.15 K, x1 = 0.5023 | 1305 | 1175.6 | 6.842
313.15 K, x1 = 0.5987 | 1343 | 1183 | 8.742
313.15 K, x1 = 0.6987 | 1376 | 1190.5 | 10.75
313.15 K, x1 = 0.7947 | 1402 | 1196.6 | 13.15
313.15 K, x1 = 0.903 | 1426 | 1202.5 | 16.18
313.15 K, x1 = 1 | 1446 | 1212.7 | 19.24
318.15 K, x1 = 0.04926 | 888 | 1129 | 1.563
318.15 K, x1 = 0.1003 | 974 | 1123.1 | 2.049
318.15 K, x1 = 0.1993 | 1097 | 1129.9 | 2.972
318.15 K, x1 = 0.3008 | 1185 | 1141.3 | 3.913
318.15 K, x1 = 0.3991 | 1249 | 1152.7 | 5.25
318.15 K, x1 = 0.5023 | 1300 | 1164.2 | 6.044
318.15 K, x1 = 0.5987 | 1338 | 1171.9 | 7.698
318.15 K, x1 = 0.6987 | 1371 | 1179.6 | 9.441
318.15 K, x1 = 0.7947 | 1397 | 1185.8 | 11.49
318.15 K, x1 = 0.903 | 1422 | 1191.9 | 14.06
318.15 K, x1 = 1 | 1441 | 1203.1 | 16.53
323.15 K, x1 = 0.04926 | 884 | 1113.8 | 1.404
323.15 K, x1 = 0.1003 | 969 | 1109.1 | 1.833
323.15 K, x1 = 0.1993 | 1092 | 1117.1 | 2.651
323.15 K, x1 = 0.3008 | 1180 | 1129.2 | –
323.15 K, x1 = 0.3991 | 1244 | 1141.1 | 4.67
323.15 K, x1 = 0.5023 | 1295 | 1152.9 | 5.379
323.15 K, x1 = 0.5987 | 1334 | 1160.8 | 6.831
323.15 K, x1 = 0.6987 | 1366 | 1168.8 | 8.347
323.15 K, x1 = 0.7947 | 1392 | 1175.2 | 10.12
323.15 K, x1 = 0.903 | 1417 | 1181.5 | 12.31
323.15 K, x1 = 1 | 1436 | 1193.7 | 14.31
328.15 K, x1 = 0.04926 | 879 | 1098.6 | 1.268
328.15 K, x1 = 0.1003 | 965 | 1095.1 | 1.648
328.15 K, x1 = 0.1993 | 1087 | 1104.3 | 2.38
328.15 K, x1 = 0.3008 | 1175 | 1117.2 | 3.13
328.15 K, x1 = 0.3991 | 1239 | 1129.5 | 4.187
328.15 K, x1 = 0.5023 | 1290 | 1141.6 | 4.822
328.15 K, x1 = 0.5987 | 1329 | 1149.9 | 6.099
328.15 K, x1 = 0.6987 | 1362 | 1158.1 | 7.438
328.15 K, x1 = 0.7947 | 1388 | 1164.7 | 8.976
328.15 K, x1 = 0.903 | 1412 | 1171.2 | 10.86
328.15 K, x1 = 1 | 1431 | 1184.7 | 12.5
333.15 K, x1 = 0.04926 | 875 | 1083.4 | 1.149
333.15 K, x1 = 0.1003 | 960 | 1081.1 | 1.489
333.15 K, x1 = 0.1993 | 1082 | 1091.5 | 2.148
333.15 K, x1 = 0.3008 | 1170 | 1105.2 | 2.825
333.15 K, x1 = 0.3991 | 1234 | 1118 | 3.775
333.15 K, x1 = 0.5023 | 1285 | 1130.5 | 4.346
333.15 K, x1 = 0.5987 | 1324 | 1139.1 | 5.483
333.15 K, x1 = 0.6987 | 1357 | 1147.5 | 6.667
333.15 K, x1 = 0.7947 | 1383 | 1154.3 | 8.024
333.15 K, x1 = 0.903 | 1407 | 1161 | 9.653
333.15 K, x1 = 1 | 1427 | 1175.9 | 10.99
338.15 K, x1 = 0.04926 | 870 | 1068.2 | 1.044
338.15 K, x1 = 0.1003 | 955 | 1067.1 | 1.352
338.15 K, x1 = 0.1993 | 1078 | 1078.7 | 1.95
338.15 K, x1 = 0.3008 | 1166 | 1093.3 | 2.563
338.15 K, x1 = 0.3991 | 1229 | 1106.6 | 3.422
338.15 K, x1 = 0.5023 | 1281 | 1119.3 | 3.941
338.15 K, x1 = 0.5987 | 1319 | 1128.3 | 4.956
338.15 K, x1 = 0.6987 | 1352 | 1137 | 6.007
338.15 K, x1 = 0.7947 | 1378 | 1144 | 7.206
338.15 K, x1 = 0.903 | 1403 | 1150.8 | 8.628
338.15 K, x1 = 1 | 1422 | 1166.8 | 9.726
343.15 K, x1 = 0.04926 | 866 | 1052.9 | 0.953
343.15 K, x1 = 0.1003 | 951 | 1053.3 | 1.232
343.15 K, x1 = 0.1993 | 1073 | 1066.2 | 1.778
343.15 K, x1 = 0.3008 | 1161 | 1081.5 | 2.339
343.15 K, x1 = 0.3991 | 1224 | 1095.4 | 3.123
343.15 K, x1 = 0.5023 | 1276 | 1108.3 | 3.594
343.15 K, x1 = 0.5987 | 1315 | 1117.8 | 4.507
343.15 K, x1 = 0.6987 | 1347 | 1126.8 | 5.444
343.15 K, x1 = 0.7947 | 1373 | 1134 | 6.506
343.15 K, x1 = 0.903 | 1398 | 1141 | 7.766
343.15 K, x1 = 1 | 1417 | 1157.6 | 8.659
